Assay results taken from the NIST ThermoML archive (doi:10.1016/j.jct.2013.07.002).

Settings: 101.33 kPa, Liquid; for viscosity: Concentric cylinders viscometry; for thermal conductivity: Hot wire method

OCCO [1,2-ethanediol]
Settings | thermal conductivity [W/m/K] | viscosity [mPa·s]
283.15 K | 0.243 | 35.44
288.15 K | – | 28
293.15 K | – | 21.89
298.15 K | – | 17.25
303.15 K | 0.246 | 13.86
308.15 K | – | 11.64
313.15 K | – | 9.62
323.15 K | 0.249 | 7.21
343.15 K | 0.259 | –
